Tests used:
[1] = system: MT-4 cells; assay: Cellular toxicity in MT-4 cells (XTT staining); assay type: cell-based; settings: 6 days incubation, read-out: TC50 (50% reduction in cell viability)
Description: (§1) The compounds were evaluated for inhibition of HIV-1IIIB infection and cellular toxicity in MT-4 cells.
(§2) The MT-4 cells and […] used in the HIV-1 inhibition assays were obtained from the AIDS Research and Reference Program (Rockville, MD) and propagated as recommended by the supplier.
(§3) Fifty microliters (50 μL) of MT-4 cells at a density of 1.0×10^4 cells/well in 10% complete RPMI-1640 (10% FBS supplemented with 1% L-glutamine and 1% Penicillin/Streptomycin) media were plated in a 96-well flat bottom plate. One-hundred microliters (100 μL) of each compound at 12 concentrations were added in triplicate followed by 50 μL of HIV-1IIIB at a pre-determined titer. The cultures were incubated for 6 days at 37° C./5% CO2. Following the incubation, the cells were stained with XTT for evaluation of compound efficacy and cellular toxicity, as described below.
(§4) Efficacy and toxicity values for the test materials were derived by measuring the reduction of the tetrazolium dye XTT (2,3-bis(2-methoxy-4-nitro-5-sulfophenyl)-5-[(phenylamino)carbonyl]-2H-tetrazolium hydroxide). XTT in metabolically active cells is metabolized by the mitochondrial enzyme NADPH oxidase to a soluble formazan product. XTT solution was prepared daily as a stock of 1 mg/mL in RPMI-1640 without additives. Phenazine methosulfate (PMS) solution was prepared at 0.15 mg/mL in DPBS and stored in the dark at −20° C. XTT/PMS stock was prepared immediately before use by adding 40 μL of PMS per mL of XTT solution. Fifty μL (50 μL) of XTT/PMS was added to each well of the plate and the plate incubated for 4 hours at 37° C. The 4-hour incubation has been empirically determined to be within the linear response range for XTT dye reduction with the indicated numbers of cells for each assay. The plates were sealed and inverted several times to mix the soluble formazan product and the plate was read at 450 nm (650 nm reference wavelength) with a Molecular Devices SpectraMax Plus 384 96 well plate format spectrophotometer.
(§5) Microsoft Excel 2010 in combination with XLfit4 was used to analyze and graph the data. EC50 (50% inhibition of virus replication), TC50 (50% reduction in cell viability) and a therapeutic index (TC50/EC50) are provided. Raw data for both antiviral activity and toxicity with a graphic representation of the data are provided in a printout summarizing the compound activity.

[2] = system: HIV-1IIIB; assay: Inhibition of HIV-1IIIB infection in MT-4 cells (XTT staining); assay type: cell-based; settings: HIV-1IIIB in MT-4 cells; for EC50: 6 days incubation, XTT, read-out: EC50 (50% inhibition of virus replication)
Description: as §1, §2, §3, §4, §5

Row | Compound | CC50 [1] [nM] | Therapeutic Index (TC50/EC50) [2] | EC50 [2] [nM]
1 | Cc1nsc2nc([C@H](Cc3cc(F)cc(F)c3)NC(=O)Cn3nc(C(F)(F)F)c4c3C(F)(F)[C@@H]3C[C@H]43)n(-c3ccc(Cl)c4c(NS(C)(=O)=O)nn(C)c34)c(=O)c12 (atropisomer, axis not shown) [Compound 45] | > 100 | >212.8 | 0.47
2 | Cn1nc(NS(C)(=O)=O)c2c(Cl)ccc(-n3c([C@H](Cc4cc(F)cc(F)c4)NC(=O)Cn4nc(C(F)(F)F)c5c4C(F)(F)[C@@H]4C[C@H]54)nc4onc(-c5ccccc5)c4c3=O)c21 (atropisomer, axis not shown) [Compound 38] | > 100 | – | > 100
3 | Cn1nc(NS(C)(=O)=O)c2c(Cl)ccc(-n3c([C@H](Cc4cc(F)cc(F)c4)NC(=O)Cn4nc(C(F)(F)F)c5c4C(F)(F)C4CC54)nc4nc(S(C)(=O)=O)sc4c3=O)c21 (stereo partly shown) [Compound 30] | > 100 | – | > 100
